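The compound was tested at five concentrations on cells cultured in 96-well plates, with a 48-hour exposure period. TGI marks complete inhibition of growth.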 Where a SMILES comes first, the peptide text is derived from it. The star is where a group is joined. OSu = O=C1CCC(=O)N1O*
Tested on: KM12 colon
Experiment: DTP human tumour cell line panel, 48 h

Structure (SMILES) | TGI [µM]
CCOC(=O)c1nnn(CCCCO)c1C(=O)OCC | > 100
Cc1ccc(-[n+]2cc([O-])on2)cc1 | > 100
C(=C/CCCN1O[C@@H](CCCCCCCCc2cccnc2)[C@H]2CCC[C@H]21)/CCCCCCCCCc1cccnc1 | 58.7
NCCCCC(NC(=O)C(N)Cc1ccc(O)cc1)C(=O)NC(CCCCN)C(=O)NC(CCCCN)C(=O)ON1C(=O)CCC1=O (stereo unspecified) (H-YKKK-OSu; configuration not given here) | > 100
Cc1ccc(S(=O)(=O)N2CC2CCCCC=O)cc1 (stereo unspecified) | > 100
NC(N)=NS(=O)(=O)c1ccc(N=Nc2c(O)c(C(=O)O)cc3ccccc23)cc1 | > 100

Tested on: MDA-MB-435
Experiment: DTP human tumour cell line panel, 48 h

Structure (SMILES) | TGI [µM]
C=C(C)C12OC1[C@@]1(C)C(=CC2=O)CCC(O)[C@@H]1C (stereo partly specified) | 21.1
CCOC(=O)c1nnn(CCCCO)c1C(=O)OCC | > 100
Cc1ccc(-[n+]2cc([O-])on2)cc1 | > 100
C(=C/CCCN1O[C@@H](CCCCCCCCc2cccnc2)[C@H]2CCC[C@H]21)/CCCCCCCCCc1cccnc1 | 38
Cc1ccc(S(=O)(=O)N2CC2CCCCC=O)cc1 (stereo unspecified) | > 100
NC(N)=NS(=O)(=O)c1ccc(N=Nc2c(O)c(C(=O)O)cc3ccccc23)cc1 | > 100

Tested on: UACC-62 melanoma
Experiment: DTP human tumour cell line panel, 48 h

Structure (SMILES) | TGI [µM]
C=C(C)C12OC1[C@@]1(C)C(=CC2=O)CCC(O)[C@@H]1C (stereo partly specified) | 75.4
CCOC(=O)c1nnn(CCCCO)c1C(=O)OCC | > 100
Cc1ccc(-[n+]2cc([O-])on2)cc1 | > 100
C(=C/CCCN1O[C@@H](CCCCCCCCc2cccnc2)[C@H]2CCC[C@H]21)/CCCCCCCCCc1cccnc1 | 51
NCCCCC(NC(=O)C(N)Cc1ccc(O)cc1)C(=O)NC(CCCCN)C(=O)NC(CCCCN)C(=O)ON1C(=O)CCC1=O (stereo unspecified) (H-YKKK-OSu; configuration not given here) | > 100
Cc1ccc(S(=O)(=O)N2CC2CCCCC=O)cc1 (stereo unspecified) | > 100
NC(N)=NS(=O)(=O)c1ccc(N=Nc2c(O)c(C(=O)O)cc3ccccc23)cc1 | > 100

Tested on: HL-60(TB) leukemia
Experiment: DTP human tumour cell line panel, 48 h

Structure (SMILES) | TGI [µM]
C=C(C)C12OC1[C@@]1(C)C(=CC2=O)CCC(O)[C@@H]1C (stereo partly specified) | 4.26
Cc1ccc(-[n+]2cc([O-])on2)cc1 | > 100
C(=C/CCCN1O[C@@H](CCCCCCCCc2cccnc2)[C@H]2CCC[C@H]21)/CCCCCCCCCc1cccnc1 | 23
NCCCCC(NC(=O)C(N)Cc1ccc(O)cc1)C(=O)NC(CCCCN)C(=O)NC(CCCCN)C(=O)ON1C(=O)CCC1=O (stereo unspecified) (H-YKKK-OSu; configuration not given here) | > 100
NC(N)=NS(=O)(=O)c1ccc(N=Nc2c(O)c(C(=O)O)cc3ccccc23)cc1 | > 100

Tested on: MCF7 breast
Experiment: DTP human tumour cell line panel, 48 h

Structure (SMILES) | TGI [µM]
C=C(C)C12OC1[C@@]1(C)C(=CC2=O)CCC(O)[C@@H]1C (stereo partly specified) | > 100
CCOC(=O)c1nnn(CCCCO)c1C(=O)OCC | > 100
C(=C/CCCN1O[C@@H](CCCCCCCCc2cccnc2)[C@H]2CCC[C@H]21)/CCCCCCCCCc1cccnc1 | 31.6
NCCCCC(NC(=O)C(N)Cc1ccc(O)cc1)C(=O)NC(CCCCN)C(=O)NC(CCCCN)C(=O)ON1C(=O)CCC1=O (stereo unspecified) (H-YKKK-OSu; configuration not given here) | > 100
NC(N)=NS(=O)(=O)c1ccc(N=Nc2c(O)c(C(=O)O)cc3ccccc23)cc1 | > 100

Tested on: OVCAR-4 ovarian
Experiment: DTP human tumour cell line panel, 48 h

Structure (SMILES) | TGI [µM]
C=C(C)C12OC1[C@@]1(C)C(=CC2=O)CCC(O)[C@@H]1C (stereo partly specified) | > 100
CCOC(=O)c1nnn(CCCCO)c1C(=O)OCC | > 100
Cc1ccc(-[n+]2cc([O-])on2)cc1 | > 100
C(=C/CCCN1O[C@@H](CCCCCCCCc2cccnc2)[C@H]2CCC[C@H]21)/CCCCCCCCCc1cccnc1 | > 100
Cc1ccc(S(=O)(=O)N2CC2CCCCC=O)cc1 (stereo unspecified) | > 100
NC(N)=NS(=O)(=O)c1ccc(N=Nc2c(O)c(C(=O)O)cc3ccccc23)cc1 | > 100

Tested on: RPMI-8226 leukemia
Experiment: DTP human tumour cell line panel, 48 h

Structure (SMILES) | TGI [µM]
C=C(C)C12OC1[C@@]1(C)C(=CC2=O)CCC(O)[C@@H]1C (stereo partly specified) | 24
Cc1ccc(-[n+]2cc([O-])on2)cc1 | > 100
C(=C/CCCN1O[C@@H](CCCCCCCCc2cccnc2)[C@H]2CCC[C@H]21)/CCCCCCCCCc1cccnc1 | 28
NCCCCC(NC(=O)C(N)Cc1ccc(O)cc1)C(=O)NC(CCCCN)C(=O)NC(CCCCN)C(=O)ON1C(=O)CCC1=O (stereo unspecified) (H-YKKK-OSu; configuration not given here) | > 100
Cc1ccc(S(=O)(=O)N2CC2CCCCC=O)cc1 (stereo unspecified) | > 100
NC(N)=NS(=O)(=O)c1ccc(N=Nc2c(O)c(C(=O)O)cc3ccccc23)cc1 | > 100

Tested on: HCT-15 colon
Experiment: DTP human tumour cell line panel, 48 h

Structure (SMILES) | TGI [µM]
C=C(C)C12OC1[C@@]1(C)C(=CC2=O)CCC(O)[C@@H]1C (stereo partly specified) | > 100
CCOC(=O)c1nnn(CCCCO)c1C(=O)OCC | > 100
Cc1ccc(-[n+]2cc([O-])on2)cc1 | > 100
C(=C/CCCN1O[C@@H](CCCCCCCCc2cccnc2)[C@H]2CCC[C@H]21)/CCCCCCCCCc1cccnc1 | 58.9
NCCCCC(NC(=O)C(N)Cc1ccc(O)cc1)C(=O)NC(CCCCN)C(=O)NC(CCCCN)C(=O)ON1C(=O)CCC1=O (stereo unspecified) (H-YKKK-OSu; configuration not given here) | > 100

Source: PubChem BioAssay (NCI)
